Legend:
primary brown adipocytes = assay: Microplate respirometry (oxygen consumption rate) in differentiated primary brown adipocytes of wildtype mice; assay type: cell-based, Mus musculus; conditions: for stimulation of UCP1-mediated thermogenesis (uncoupled respiration): SCT 10 nM, ISO 500 nM, N=5 (FIG. 10A)
Method: For culturing primary adipocytes male 129S1/SvImJ mice ([…] or UCP1-KO mice and wildtype littermates) at the age of 5-6 weeks were used for the dissection of inguinal and epidydimal white adipose tissue and interscapular brown adipose tissue depots. The tissue was carefully minced and treated with collagenase for 45 min at 37° C. The homogenate was filtered through a 250 μm nylon mesh and centrifuged at 500 g to collect the stromal vascular fraction (SVF). The SVF cell pellet was rinsed and seeded into XF96 V3-PS cell culture microplate (Seahorse Bioscience). After reaching confluency, induction medium containing 10% fetal bovine serum (FBS), 0.5 mM isobutylmethylxanthine, 125 nM indomethacin, 1 mM dexamethasone, 850 nM insulin and 1 nM T3 was added. After 2 days of induction, cells were maintained in differentiation media (10% FBS, 850 nM insulin and 1 nM T3). Medium was changed every two days. Respiration was measured on day 7 of differentiation. For determination of mRNA levels cells were stimulated at the 7th day of differentiation for 6 hours with secretin (rat, Tocris, Art Nr 1919) or isoproterenol (Sigma-Aldrich, Art Nr. 16504-100MG) and harvested subsequently. Oxygen consumption rate (OCR) was measured at 37° C. using a microplate respirometer (XF96 extracellular flux analyzer, Seahorse Bioscience). At day 7, the differentiation medium was replaced with prewarmed, unbuffered assay medium (DMEM basal medium supplemented with 25 mM glucose, 2 mM sodium pyruvate, 31 mM NaCl, 2 mM GlutaMax and 15 mg/l phenol red, pH 7.4) containing 2% of essentially fatty acid free bovine serum albumin (BSA), and incubated at 37° C. in a room air incubator for 1 h. Basal respiration was measured in untreated cells. Coupled respiration was inhibited by oligomycin treatment (5 μM). […] Maximum respiratory capacity was assessed after FCCP (Sigma-Aldrich) addition (1 μM). Finally, mitochondrial respiration was blocked by antimycin A (Sigma-Aldrich) (5 μM) treatment and the residual OCR was considered to be due to non-mitochondrial reactions. Oxygen consumption rates were calculated using the Seahorse XF-96 software. Data were exported and reconstructed in GraphPad Prism 4.0 software. For each condition the lowest OCR after antimycin A addition was subtracted from all other values. Respiration rates following oligomycin addition were defined as basal OCR. For induction of OCR by isoproterenol, secretin or FCCP the highest values measured after addition of the respective molecule was used. The “OCR in % of basal OCR” and “OCR in % of FCCP OCR” were calculated as follows: Method: To test whether SCT can activate thermogenesis in brown adipocytes, we measured UCP1-mediated uncoupled respiration in cultured adherent intact primary brown adipocytes, according to a protocol recently established in our lab (Li Y, Fromme T, Schweizer S, Schöttl T, Klingenspor M. EMBO Rep. 2014 October; 15(10):1069-76. doi: 10.15252/embr.201438775; […]. Meaningful respirometric measurements of UCP1-mediated thermogenesis. Biochimie. 2017 March; 134:56-61. doi: 10.1016/j.biochi.2016.12.005.). The cellular oxygen consumption rate (OCR) of primary adipocytes was determined using an XF96 Extracellular Flux Analyzer (Seahorse Bioscience). Briefly, primary adipocytes were cultured and differentiated in XF96 microplates. At day 7 of differentiation, cells were washed once with prewarmed, unbuffered assay medium (DMEM basal medium supplemented with 25 mM glucose, 31 mM NaCl, 2 mM GlutaMax and 15 mg/l phenol red, pH 7.4) (basal assay medium) and then the medium was replaced with basal assay medium containing 1-2% essentially fatty acid free bovine serum albumin (BSA), and incubated at 37° C. in a room air incubator for 1 h. The drug injections ports of the sensor cartridges were loaded with the assay reagents at 10× in basal assay medium (no BSA). All respiration assays were performed in the presence of bovine serum albumin to buffer free fatty acid levels in the respiration medium. […]

UCP1 expression = assay: UCP1 mRNA expression (qRT-PCR) in primary adipocytes from interscapular brown adipose tissue; assay type: cell-based, Mus musculus; conditions: 0.1 μM secretin or 0.5 μM isoproterenol, 6 hours, normalized to TFIIB (FIG. 4B)
Method: For culturing primary adipocytes male 129S1/SvImJ mice ([…] or UCP1-KO mice and wildtype littermates) at the age of 5-6 weeks were used for the dissection of inguinal and epidydimal white adipose tissue and interscapular brown adipose tissue depots. The tissue was carefully minced and treated with collagenase for 45 min at 37° C. The homogenate was filtered through a 250 μm nylon mesh and centrifuged at 500 g to collect the stromal vascular fraction (SVF). The SVF cell pellet was rinsed and seeded into XF96 V3-PS cell culture microplate (Seahorse Bioscience). After reaching confluency, induction medium containing 10% fetal bovine serum (FBS), 0.5 mM isobutylmethylxanthine, 125 nM indomethacin, 1 mM dexamethasone, 850 nM insulin and 1 nM T3 was added. […] Respiration was measured on day 7 of differentiation. […] RNA was eluted in 50 μl nuclease-free water and RNA concentration was determined spectrophotometrically (Infinite 200 PRO NanoQuant, Tecan, Männedorf/Switzerland). Reverse transcription into cDNA was performed with 500 ng RNA in a final volume of 10 μl (Quantitect Reverse Transcription Kit, Quiagen, Hilden/Germany). qRT-PCR was conducted on 384 well plates in a total volume of 12.5 μl comprising 6.25 μl SensiMix SYBR No-ROX (Bioline, London/UK), 250 nM forward and reverse primers, and 1 μl template cDNA (LightCycler 480 System, Roche Diagnostics, Rotkreuz/Switzerland). […]

Substance: secretin
- increase of OCR above basal OCR (primary brown adipocytes; 0.5 μM, after oligomycin, day 7 of differentiation (FIG. 2B)): about 200%
- uncoupled OCR as share of maximal uncoupled OCR induced by FCCP (primary brown adipocytes; 0.5 μM, day 7 of differentiation (FIG. 2C)): about 75%
- induction of oxygen consumption in cells from wildtype control mice (primary brown adipocytes; 129/S1 background, FIG. 3): increase in oxygen consumption
- stimulation of UCP1-mediated thermogenesis (uncoupled respiration) (primary brown adipocytes): activate UCP1-dependent thermogenesis
- stimulation of UCP1-mediated thermogenesis (uncoupled respiration) (primary brown adipocytes; listed as SCT): as potent as ISO (500 nM)
- dose dependence and potency of activation of uncoupled respiration (primary brown adipocytes; compared to isoproterenol, data not shown): dose-dependent with a higher potency at lower concentrations as compared to isoproterenol
- UCP1 mRNA expression in brown adipocytes versus PBS (UCP1 expression): significantly increased the expression of the UCP1 gene

From US20200179488A1, “Secretin Receptor Agonists to Treat Diseases or Disorders of Energy Homeostasis” (Technische Universität München, priority 2016, published 2020)
